EP2801573A1, “Hydantoine derivatives as CD38 inhibitors” (SANOFI, priority 2013, dated 2014)

Key:
[1] = molecular target: T1, natural cell surface human CD38 enzyme (Homo sapiens, UniProt P28907); assay: Cell surface enzyme assay on A549 cells; type: cell-based; settings: A549 human lung epithelial cells, pre-incubated 15 min, ε-NAD 100 µM, 60 min, pH=7.4
T1 construct: The A549 cells express active CD38 enzyme on the cell surface; endogenous in cells; host or cells: A549 human lung epithelial cells (ATCC CCL 185)
T1 sequence (P28907 1-300): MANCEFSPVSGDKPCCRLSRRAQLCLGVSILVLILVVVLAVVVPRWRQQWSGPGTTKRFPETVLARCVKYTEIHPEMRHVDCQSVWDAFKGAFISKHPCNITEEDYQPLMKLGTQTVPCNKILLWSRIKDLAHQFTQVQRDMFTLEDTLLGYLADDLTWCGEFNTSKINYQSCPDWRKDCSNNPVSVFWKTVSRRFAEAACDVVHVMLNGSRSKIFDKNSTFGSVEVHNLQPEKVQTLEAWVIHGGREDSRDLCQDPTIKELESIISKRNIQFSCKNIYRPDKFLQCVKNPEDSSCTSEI
Protocol: A549 human lung epithelial cells were used as enzyme source. The A549 cells express active CD38 enzyme on the cell surface.
(§1) N6-etheno-NAD (ε-NAD), a NAD analogue previously shown to be a convenient substrate of CD38 enzyme activity (Graeff et al. J. Biol. Chem. 269, pp 30260-30367, […]) was used to measure the activity of human recombinant CD38 and cell surface enzyme activity.
Type II-like human lung epithelial cells A 549 (ATCC CCL 185) were grown in RPMI 1640 medium supplemented with 10% fetal calf serum, 2mM 1-glutamine and penicillin/streptomycin 1% in a humidified incubator with an atmosphere of 95% air and 5% CO2 at 37 °C. At about 70-80% confluence, cells were detached with trypsin/EDTA solution to form a cell suspension and counted. Cell viability was higher as 95% using trypan blue dye. Cells were plated at a density of 500.000 cells/well (24 well plate), before 24 hours of starting the enzyme assay. The medium was removed and replaced by assay buffer (20 mM HEPES, pH=7.4 containing 140 mM NaCl, 5 mM KCl, 1 mM MgSO4 1 mM CaCl2, 1mM Na2HPO4, 5.5 mM glucose).
A549 cells (800.000/well, 500 µl) were pre-incubated in the presence and absence of inhibitors for 15 min before the addition of ε-NAD, final substrate concentration was 100 µM. After 60 min, the plate was centrifuged and 100 µl of supernatant was removed and measured fluorimetrically in BMG Polarstar spectrofluorimeter at an emission wavelength of 410 nm and an excitation of 300 nm. The mean difference in the fluorescence between reaction stopped at 0 and 60 min was used an arbitrary unit of NADase activity. The NADase activity in the absence and presence of inhibitors were compared and IC50 values were calculated.

[2] = molecular target: T2, human recombinant CD38 enzyme (Homo sapiens, UniProt P28907); assay: Human recombinant enzyme assay (fluorimetric CD38 enzyme assay, ε-NAD substrate); type: biochemical; settings: recombinant CD38 100 ng/ml, ε-NAD 100 µM, pH = 6.0, 37°C, reaction time 30 min; read-out: IC50 (nM) ENAD
T2 construct: purchased R&D Systems H7006
T2 sequence (P28907 1-300): T1 sequence (P28907 1-300)
Protocol: Enzyme assay on human recombinant CD38 enzyme were performed in order to determine the in vitro potency of the newly synthesized compounds. IC50 values were determined for the test compounds and used to explore the structure-activity relationships (SAR).
as §1
A fluorimetric CD38 enzyme assay was performed as described by Graeff et al. The reaction was started with 10 µl of N6-etheno-NAD (ε-NAD) substrate, final concentration 100 µM, in a final volume of 0.1 ml buffered with 50 mM HEPES, 0.05% BRIJ, pH = 6.0 containing 100 ng/ml recombinant CD38 (R&D Systems, H7006). Cleavage of ε-NAD, which causes a 10-fold fluorescence enhancement, was continuously followed at 37°C in a BMG Polarstar spectrofluorometer at an emission wavelength of 410 nm and an excitation of 300 nm, reaction time was 30 min. NADase activity was expressed as Δ relative fluorescence/min. The rate of enzyme reactions were compared in the presence and absence of inhibitor molecule, the IC50 values were calculated with Biostat Speed program.

An IC50 [1] of 246 nM and an IC50 [2] of 30 nM were found for `O=C1N/C(=C\c2ccncc2)C(=O)N1CC1(O)CCCC1` [Compound 58, 3-(1-Hydroxy-cyclopentylmethyl)-5-[1-pyridin-4-yl-meth-(Z)-ylidene]-imidazolidine-2,4-dione] in this work.

An IC50 [1] of 98.5 nM and an IC50 [2] of 35 nM were found for `O=C1N/C(=C\c2ccncc2)C(=O)N1CC1(O)CCC1` [Compound 59, 3-(1-Hydroxy-cyclobutylmethyl)-5-[1-pyridin-4-yl-meth-(Z)-ylidene]-imidazolidine-2,4-dione] in this work.

An IC50 [1] of 81.8 nM and an IC50 [2] of 22 nM were found for `O=C1N/C(=C\c2ccncc2)C(=O)N1CC1CCCO1` (stereo not shown) [Compound 60, 5-[1-Pyridin-4-yl-meth-(Z)-ylidene]-3-(tetrahydro-furan-2-ylmethyl)-imidazolidine-2,4-dione] in this work.

An IC50 [1] of 288 nM and an IC50 [2] of 25 nM were found for `CC(C)(O)CN1C(=O)N/C(=C\c2ccncc2)C1=O` [Compound 61, 3-(2-Hydroxy-2-methyl-propyl)-5-[1-pyridin-4-yl-meth-(Z)-ylidene]-imidazolidine-2,4-dione] in this work.

An IC50 [1] of 604 nM and an IC50 [2] of 57 nM were found for `O=C1N/C(=C\c2ccncc2)C(=O)N1CC(F)(F)F` [Compound 62, 5-[1-Pyridin-4-yl-meth-(Z)-ylidene]-3-(2,2,2-trifluoro-ethyl)-imidazolidine-2,4-dione] in this work.
